Data: US9023821B2, “Use of MicroRNA for treating diseases associated with a dysfunction of the cilia in multiciliated epithelial cells” (Centre National de la Recherche Scientifique, priority 2009, dated 2015)

Legend:
[1] = tested on: basal cells and pyramidal cells of the airway epithelium; test: miRNA expression in sorted basal cells versus pyramidal cells (ciliated + secretory), HTS and Agilent chips; design: species or system human; settings: for Modulation of expression of the miRNAs in pyramidal cells (323(−)) relative to basal cells 323(+): HTS and Agilent chips; for Intensity of the level of expression in log2 in pyramidal cells (323(−)): pyramidal cells (ciliated + secretory)
Experimental: After dissociation of the stroma of nasal polyps, the epithelial cells (about 20.10^6) are incubated in PBS-BSA-EDTA for 30 min and then incubated with labeled antibody CD151-PE and anti-TF (tissue factor)-FITC for 20 min, 4° C. (see Hajj, R. et al., Stem Cells 25, 139-148 (2007)). After washing twice, the cells are taken up in PBS-EDTA and incubated with DAPI for labeling the cells whose integrity has been altered.
Cell sorting was carried out on the FACSAria sorter (BD Biosciences) equipped with 3 lasers, blue, red and violet. Dead cells, aggregates and double cells were excluded. The doubly positive population of basal cells (CD151+/FT+) and the negative population of cylindrical cells (containing ciliated cells and mucus-secreting cells) (CD151−/FT−) were selected and sorted at a rate of 5000 events/s ([…]). The purity and identity of the sorted cells were then verified by cytometry and immunocytochemistry.
Like the native airway epithelium, the model of differentiation in vitro used in these tests consists of basal cells, ciliated cells and mucus-secreting cells. In order to identify the repertoires of the miRNAs specific to each of the cellular types, the inventors used cell sorting by flow cytometry by means of specific markers (Hajj, R. et al. 2007). Using this technique, adult airway progenitor cells (corresponding a priori to basal cells) were isolated, selected and sorted (such cells appear doubly positive for tetraspanin CD151 and for the tissue factor) from the pyramidal cells (i.e. ciliated cells and mucus-secreting cells) which appear negative for these same markers. These were purified from polyps or from nasal conchae obtained from 3 separate donors.
After extracting the total RNAs, the expression profiles of the miRNAs were established by means of Agilent® commercial chips or by high-throughput sequencing (HTS). […] For the first time, the inventors thus attribute a repertoire of expression of the miRNAs specifically to separate cellular types of the airway epithelium during differentiation.

[2] = tested on: human airway epithelial cells (HAECs); test: High-throughput sequencing (HTS) of miRNAs at four stages of differentiation of HAECs; settings: for Modulation (ratio of the level of intensity of expression in log2 in two stages of differentiation) measured by high-throughput sequencing, D7 − D0 / Modulation (ratio of the level of intensity of expression in log2 in two stages of differentiation) measured by high-throughput sequencing, FC − D7 / Modulation (ratio of the level of intensity of expression in log2 in two stages of differentiation) measured by high-throughput sequencing, WD − D0 / Modulation (ratio of the level of intensity of expression in log2 in two stages of differentiation) measured by high-throughput sequencing, WD − FC / Level of intensity of expression in log2 measured by high-throughput sequencing, D0 / Level of intensity of expression in log2 measured by high-throughput sequencing, D7 / Level of intensity of expression in log2 measured by high-throughput sequencing, FC / Level of intensity of expression in log2 measured by high-throughput sequencing, WD: Table VI; for Level of intensity of expression in log2 At the differentiated stage (WD) measured in HTS: healthy human airway epithelial tissue; for Level of intensity of expression in log2 measured by high-throughput sequencing, D0: stage D0; for Level of intensity of expression in log2 measured by high-throughput sequencing, D7: stage D7; for Level of intensity of expression in log2 measured by high-throughput sequencing, FC: stage FC; for Level of intensity of expression in log2 At the differentiated stage (WD) measured in HTS / Level of intensity of expression in log2 measured by high-throughput sequencing, WD: stage WD
From the text: The total RNAs were extracted from HAECs cultivated at the air-liquid interface at four stages of differentiation: ALI-D0 (0 day), ALI-D7 (7 days), ALI-FC (during appearance of the first cilia at about 14 days) and ALI-WD (wholly differentiated at about 21 days). The cells are lysed in reagent with Trizol® (Invitrogen). The total RNAs containing small RNAs and microRNAs are purified on Qiagen RNEasy columns (Qiagen) according to the supplier's instructions.
The total RNAs containing small RNAs and microRNAs are isolated as before. The procedure is based on the Applied Biosystems Ligase-Enhanced Genome Detection technology (LEGenD™); the SOLiD™ Small RNA Expression kit (Applied Biosystems, France) was used. With this method it is possible to convert the small RNAs of a sample into a library of double-stranded DNA; it was developed by Applied Biosystems SOLiD™ System for a new generation of high-throughput sequencing.
The high-throughput sequencing of the microRNAs was carried out according to the supplier's recommendations. Briefly, the total RNAs containing the small RNAs are hybridized (65° C., 10 min, then at 16° C., 5 min) and ligated (16° C., 2-16 h in a thermocycler) with the Adaptor Mix A for producing a matrix for sequencing the 5′ end of the small RNAs, or with the Adaptor Mix B for sequencing the 3′ end. The samples are then reverse-transcribed (42° C., 30 min) to synthesize the complementary DNA (cDNA). The library of small RNAs is amplified by PCR and after migration on polyacrylamide gel the amplified small RNAs are cut out and extracted from the gel according to their size (length of about 105-150 bases, according to the supplier's instructions), eluted and resuspended in nuclease-free water. The concentration of nucleic acids is then measured and normalized before proceeding with preparation of the samples for sequencing.
For each microRNA sequenced, the number of sequences of the 5p strand and of the 3p strand of the microRNA was normalized to 10^6 sequences and converted to percentage abundance of expression for each of the microRNAs. The data were then normalized according to a linear model and an empirical Bayesian method using software R. For subsequent analyses, only the microRNAs were retained for which the percentage expression (or abundance) is greater than 1% of the total of the microRNAs in at least one culture condition, with a |Log2 Ratio| below 0.5 and an adjusted P-value below 0.05.

[3] = tested on: human airway epithelial cells (HAECs); test: Agilent miRNA chips, miRNA expression at four stages of differentiation of HAECs; settings: for Modulation (ratio of the level of intensity of expression in log2 in two stages of differentiation) measured with the Agilent chips, D7 − D0 / Modulation (ratio of the level of intensity of expression in log2 in two stages of differentiation) measured with the Agilent chips, FC − D7 / Modulation (ratio of the level of intensity of expression in log2 in two stages of differentiation) measured with the Agilent chips, WD − D0 / Modulation (ratio of the level of intensity of expression in log2 in two stages of differentiation) measured with the Agilent chips, WD − FC / Level of intensity of expression in log2 measured with the Agilent chips, D0 / Level of intensity of expression in log2 measured with the Agilent chips, D7 / Level of intensity of expression in log2 measured with the Agilent chips, FC / Level of intensity of expression in log2 measured with the Agilent chips, WD: Table VI; for Level of intensity of expression in log2 measured with the Agilent chips, D0: stage D0; for Level of intensity of expression in log2 measured with the Agilent chips, D7: stage D7; for Level of intensity of expression in log2 measured with the Agilent chips, FC: stage FC; for Level of intensity of expression in log2 measured with the Agilent chips, WD: stage WD
From the text: In parallel with the high-throughput sequencing of the microRNAs, the repertoire of expression of the microRNAs (microRNAome) is investigated using the technology of Agilent® microRNA chips. For this, RNA samples from the same patients as before were used, labeled and hybridized on Agilent® miRNA chips (Human miRNA Microarray v2, containing 866 human miRNAs and 89 human viral miRNAs, i.e. all the human miRNAs contained and referenced in Sanger miRBase v.12.0, Agilent Technologies, France) using the “miRNA labeling and hybridization” kit, following the supplier's instructions (Agilent Technologies).
The inventors then used the Agilent miRNA chips to investigate the repertoire of expression of the miRNAs of the human airway epithelium and compare the results obtained in high-throughput sequencing with those obtained with Agilent® commercial miRNA chips.

Substance	Modulation of expression of the miRNAs in pyramidal cells (323(−)) relative to basal cells 323(+) [1]	Intensity of the level of expression in log2 in basal cells (323(+)) [1] [log2]	Intensity of the level of expression in log2 in pyramidal cells (323(−)) [1] [log2]	Modulation (ratio of the level of intensity of expression in log2 in two stages of differentiation) measured by high-throughput sequencing, D7 − D0 [2] [log2]	Modulation (ratio of the level of intensity of expression in log2 in two stages of differentiation) measured by high-throughput sequencing, FC − D7 [2] [log2]	Modulation (ratio of the level of intensity of expression in log2 in two stages of differentiation) measured by high-throughput sequencing, WD − D0 [2] [log2]	Modulation (ratio of the level of intensity of expression in log2 in two stages of differentiation) measured by high-throughput sequencing, WD − FC [2] [log2]	Level of intensity of expression in log2 At the differentiated stage (WD) measured in HTS [2] [log2]	Level of intensity of expression in log2 measured by high-throughput sequencing, D0 [2] [log2]	Level of intensity of expression in log2 measured by high-throughput sequencing, D7 [2] [log2]	Level of intensity of expression in log2 measured by high-throughput sequencing, FC [2] [log2]	Level of intensity of expression in log2 measured by high-throughput sequencing, WD [2] [log2]	Modulation (ratio of the level of intensity of expression in log2 in two stages of differentiation) measured with the Agilent chips, D7 − D0 [3] [log2]	Modulation (ratio of the level of intensity of expression in log2 in two stages of differentiation) measured with the Agilent chips, FC − D7 ([3]; FC − D7) [log2]	Modulation (ratio of the level of intensity of expression in log2 in two stages of differentiation) measured with the Agilent chips, WD − D0 [3] [log2]	Modulation (ratio of the level of intensity of expression in log2 in two stages of differentiation) measured with the Agilent chips, WD − FC ([3]; WD − FC) [log2]	Level of intensity of expression in log2 measured with the Agilent chips, D0 [3] [log2]	Level of intensity of expression in log2 measured with the Agilent chips, D7 [3] [log2]	Level of intensity of expression in log2 measured with the Agilent chips, FC [3] [log2]	Level of intensity of expression in log2 measured with the Agilent chips, WD [3] [log2]	further results
hsa-let-7g: human miRNA, SEQ ID No. 162 (UGAGGUAGUAGUUUGUACAGUU; expressed or natural sequence; listed as Homo sapiens)	−0.15	8.37	8.22	−0.24	−0.03	0.56	0.83	12.40	11.84	11.60	11.57	12.40	1.83	−0.54	1.50	0.21	9.30	11.12	10.59	10.80	Modulation (ratio of the level of intensity of expression in log2 at two stages of differentiation), FC − D7 ([3]; FC − D7, Agilent miRNA chips, Table V): −0.54 log2; Modulation (ratio of the level of intensity of expression in log2 at two stages of differentiation), WD − FC ([3]; WD − FC, Agilent miRNA chips, Table V): 0.21 log2
hsa-miR-210: human miRNA, SEQ ID No. 22	−2.03	6.60	4.57	−0.96	−0.74	−1.80	−0.10	9.29	12.29	11.33	10.60	10.49	0.18	−0.63	−0.56	−0.11	9.08	9.25	8.63	8.52	Modulation (ratio of the level of intensity of expression in log2 in two stages of differentiation), D7 − D0 ([2]; HTS): −0.96 log2; Modulation (ratio of the level of intensity of expression in log2 in two stages of differentiation), FC − D7 ([2]; HTS): −0.74 log2; Modulation (ratio of the level of intensity of expression in log2 in two stages of differentiation), WD − FC ([2]; HTS): −0.10 log2; Abundance (%), D0 ([2]; HTS, ALI-D0): 1.10%; Abundance (%), D7 ([2]; HTS, ALI-D7): 0.57%; Abundance (%), FC ([2]; HTS, ALI-FC): 0.33%; Abundance (%), WD ([2]; HTS, ALI-WD): 0.23%
